# From PubChem BioAssay (NCI)
#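 These data come from cells grown in 96-well plates and exposed to compound for 48 hours at five concentrations. GI50 marks 50% less growth. TGI: total growth inhibition.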
# How the values were obtained:
# Experiment in all cases: NCI-60 cell line screen, 48 h
# [1] = system: NCI-H522 lung
# [2] = system: M14 melanoma
# [3] = system: SK-MEL-2 melanoma
# [4] = system: 786-0 renal
# [5] = system: SNB-75 CNS
# [6] = system: SW-620 colon
# [7] = system: BT-549 breast
# [8] = system: NCI/ADR-RES ovarian
# [9] = system: SR leukemia
# [10] = system: U251 CNS
# [11] = system: TK-10 renal
# [12] = system: SF-295 CNS
# [13] = system: NCI-H226 lung
# [14] = system: SK-MEL-28 melanoma
# [15] = system: RXF 393 renal
# [16] = system: UO-31 renal
# [17] = system: OVCAR-4 ovarian
# [18] = system: COLO 205 colon
# [19] = system: HCC-2998 colon
# [20] = system: HL-60(TB) leukemia
# [21] = system: EKVX NSCLC
# [22] = system: SNB-19 CNS
# [23] = system: HOP-92 NSCLC
# [24] = system: SN12C renal
# [25] = system: SK-OV-3 ovarian
# [26] = system: MDA-MB-231 breast
# [27] = system: UACC-62 melanoma
# [28] = system: KM12 colon
# [29] = system: HOP-62 NSCLC
# [30] = system: OVCAR-5 ovarian
# [31] = system: SF-268 CNS
# [32] = system: LOX IMVI melanoma
# [33] = system: A549 NSCLC
# [34] = system: MOLT-4 leukemia
# [35] = system: RPMI-8226 leukemia
# [36] = system: K-562 leukemia
# [37] = system: ACHN renal
# [38] = system: UACC-257 melanoma
# [39] = system: HT29 colon
# [40] = system: OVCAR-8 ovarian
# [41] = system: SF-539 CNS
# [42] = system: MDA-MB-435
# [43] = system: NCI-H23 lung
# [44] = system: CAKI-1 renal
# [45] = system: OVCAR-3 ovarian
# [46] = system: NCI-H460 lung
# [47] = system: DU-145 prostate
# [48] = system: T-47D breast
# [49] = system: SK-MEL-5 melanoma
# [50] = system: HCT-15 colon
# [51] = system: PC-3 prostate
smiles,measurement,setting,value
N/N=C\c1c2ccccc2c(=O)n2c1oc1ccccc12,GI50,[1],13.6 µM
same,TGI,[1],46 µM
same,GI50,[2],27.3 µM
same,TGI,[2],83.6 µM
same,GI50,[3],26.5 µM
same,TGI,[3],> 100 µM
same,GI50,[4],26.7 µM
same,TGI,[4],61.7 µM
same,GI50,[5],11.5 µM
same,TGI,[5],31 µM
same,GI50,[6],15.1 µM
same,TGI,[6],32.5 µM
same,GI50,[7],1.42 µM
same,TGI,[7],17 µM
same,GI50,[8],16.9 µM
same,TGI,[8],38.1 µM
same,GI50,[9],5.61 µM
same,TGI,[9],26 µM
same,GI50,[10],14.6 µM
same,TGI,[10],27.7 µM
same,GI50,[11],18.7 µM
same,TGI,[11],34.3 µM
same,GI50,[12],2.61 µM
same,TGI,[12],12.3 µM
same,GI50,[13],14.6 µM
same,TGI,[13],33.9 µM
same,GI50,[14],18.8 µM
same,TGI,[14],38.7 µM
same,GI50,[15],20 µM
same,TGI,[15],52.5 µM
same,GI50,[16],25.8 µM
same,TGI,[16],87.7 µM
same,GI50,[17],13.1 µM
same,TGI,[17],> 100 µM
same,GI50,[18],18.3 µM
same,TGI,[18],34.8 µM
same,GI50,[19],16.5 µM
same,TGI,[19],30.5 µM
same,GI50,[20],21.1 µM
same,TGI,[20],50.9 µM
same,GI50,[21],10.2 µM
same,TGI,[21],26.2 µM
same,GI50,[22],17.8 µM
same,TGI,[22],38.7 µM
same,GI50,[23],18.9 µM
same,TGI,[23],38.7 µM
same,GI50,[24],14.4 µM
same,TGI,[24],29.7 µM
same,GI50,[25],17.6 µM
same,TGI,[25],34.3 µM
same,GI50,[26],10.8 µM
same,TGI,[26],25 µM
same,GI50,[27],6.82 µM
same,TGI,[27],19.7 µM
same,GI50,[28],14.6 µM
same,TGI,[28],27.7 µM
same,GI50,[29],16.9 µM
same,TGI,[29],32.9 µM
same,GI50,[30],18.4 µM
same,TGI,[30],34.8 µM
same,GI50,[31],15.9 µM
same,TGI,[31],30.4 µM
same,GI50,[32],16.4 µM
same,TGI,[32],29.9 µM
same,GI50,[33],11.2 µM
same,TGI,[33],41.7 µM
same,GI50,[34],17.4 µM
same,TGI,[34],64.9 µM
same,GI50,[35],9.18 µM
same,TGI,[35],29 µM
same,GI50,[36],20.8 µM
same,TGI,[36],67.6 µM
same,GI50,[37],16.3 µM
same,TGI,[37],29.9 µM
same,GI50,[38],17.3 µM
same,TGI,[38],39 µM
same,GI50,[39],22.1 µM
same,TGI,[39],> 100 µM
same,GI50,[40],19.4 µM
same,TGI,[40],49.4 µM
same,GI50,[41],11.4 µM
same,TGI,[41],23.6 µM
same,GI50,[42],11.3 µM
same,TGI,[42],23.8 µM
same,GI50,[43],15.7 µM
same,TGI,[43],29.9 µM
same,GI50,[44],14.2 µM
same,TGI,[44],27.3 µM
same,GI50,[45],14.7 µM
same,TGI,[45],28 µM
same,GI50,[46],5.47 µM
same,TGI,[46],18.4 µM
same,GI50,[47],10.6 µM
same,TGI,[47],24.9 µM
same,GI50,[48],20.5 µM
same,TGI,[48],39.9 µM
same,GI50,[49],2.8 µM
same,TGI,[49],8.34 µM
same,GI50,[50],17.3 µM
same,TGI,[50],34.6 µM
same,GI50,[51],12.7 µM
same,TGI,[51],26.4 µM
